Patent US10889812B2, “Short non-coding protein regulatory RNAs (sprRNAs) and methods of use” (University of Maryland, Baltimore, priority 2014, dated 2021)
“Also recorded” adds a separate entry of the source. m = 2'-O-methyl; r = 2'-OH (RNA)

Legend:
H1792 cells = experiment: Trans-well invasion assay; format: cell-based, human; settings: H1792, vs control RNA oligonucleotides
Description: We then tested the potential impact of piR-L-163 in cell migration and invasion, two of the properties involving ERM's biological functions (Fehon, R. G., Mclatchey, A. I. & Bretscher, A. Organizing the cell cortex: the role of ERM proteins. Nat Rev Mol Cell Biol. 11, 276-287 (2010); Hunter, K. W. Ezrin, a key component in tumor metastasis. Trends Mol. Med. 10, 201-204 (2004); Luo, Y. et al. Recognition of CD146 as an ERM-binding protein offers novel mechanisms for melanoma cell migration. Oncogene 31, 306-321 (2013); Clucas, J. & Valderrama, F. ERM proteins in cancer progression. J Cell Sci. 128, 1253 (2015)).
Briefly, 24 hrs after transfection, 6×10^4 cells were placed in the upper chamber of Matrigel Invasion Chambers (BD Bioscience) with growth factor-free Keratinocyte-SFM and the bottom chamber were exposed to Keratinocyte-SFM medium supplemented with L-Glutamine, prequalified human recombinant EGF 1-53 and BPE. Invading cells were evaluated after 12 hrs according to the manufacturer's instruction. The numbers of invading cells were adjusted 15% downwards for Ant-163 treated cells or 15% upwards for piR-L-163 treated cells to compensate the differences for the proliferation rates.

p-ERM = experiment: IP with anti-p-ERM antibody followed by RT-PCR in transfected H1792 cells; format: binding, human; settings: H1792 cells transfected with the oligonucleotide
Description: We next wanted to determine the site critical for piR-L-163's binding toP-ERM. We first analyzed the piR-L-163 sequence and identified a candidate motif “UUNNUUUNNUU” (SEQ ID NO:495) with potentially critical for the binding (FIG. 5a). We then generated 5 mutant forms of piR-L-163 named as M1-M5 (FIG. 5b and Table 3) to test their potential impact on the p-ERM binding. For this experiment, we used H1792 cells because these cells expressed extremely low level of endogenous piR-L-163 but considerable amount of p-ERM (FIG. 5c and FIG. 11a). H1792 cells were transfected with Scr (control), Ant-163, piR-L-163 (WT), or Mutant 1 (M1) to Mutant 5 (M5) RNA oligonucletides, respectively. An anti-p-ERM antibody was used for IP followed by RT-PCR using primers specific for Scr, Ant-163, piR-L-163, or M1-M5 (Table 6) to detect the corresponding oligonucleotides.
To amplify sncRNAs, we added an adaptor to the 3′ end, a process including adaptor ligation, RT and PCR (de Vanssay, A. et al. Paramutation in Drosophila linked to emergence of a piRNA-producing locus. Nature 490, 112-115 (2012); Li, Z. et al. Characterization of viral and human RNAs smaller than canonical MicroRNAs. J Virol. 83, 12751-12758 (2009)). For adaptor ligation, the adaptor /5′rapp/CTGTAGGCACCATCAAT/3′ddc/ (SEQ ID NO:499) with both 5′ and 3′ modification was used. Briefly, mixed 1 μl (10 pmol, ˜55 ng) of RNA 3′ adaptor and 4.4 μl (˜100 ng) of purified sncRNAs in a 1.5 ml EP tube; Incubated at 72° C. for 2 min, then placed on ice immediately and kept it on ice for at least 1 min; Added the following reagents (New England Biolabs) to the above tube: 0.8 μl 10×RNA ligase buffer, 1 μl RNase inhibitor, and 1 μl single strand RNA ligase; Mixed it well and incubated at 37° C. for 1 hr, then terminated the reaction at 65° C. for 15 min. For RT, SuperScript™ III First-Strand Synthesis System (Invitrogen) was used according to the manufacturer's instructions with gene specific primer (5′-[…]-3′) (SEQ ID NO:500). For PCR, a common reverse primer (5′-[…]-3′) (SEQ ID NO:501) and primers specific for individual sncRNAs (Table 6). Amplification conditions were denaturation at 95° C. for 30 s (5 min for the first cycle), annealing at 60° C. for 20 s and extension at 72° C. for 20 s (2 min for the last cycle) for 25 cycles.
For IP using anti-human Moesin or p-ERM antibodies, anti-Moesin (Clone Q480, Catalog No. 3150, Cell Signaling) or anti-p-ERM (Clone 41A3, Catalog No. 3149, Cell Signaling) antibodies were used and a rabbit IgG was used as a control. Briefly, Saturated protein G agarose beads (Sigma-Aldrich) with rabbit IgG, anti-Moesin or anti-p-ERM antibodies, respectively (1 μg antibody was used for 4 μl agarose beads) at 4° C. for 3 hrs, centrifuged at 2,200×g for 5 min, and discarded the upper aqueous phase; (2) Protein extracts prepared from cells using lysis buffer (20 mM Tris-cl, pH7.6, 150 mM NaCl, 20 mM KCl, 1.5 mM MgCl2, 0.5% NP-40, 0.5 mM PMSF) were pre-cleared using protein G agarose at 4° C. for 2 hrs, centrifuged at 2,200×g for 5 min, and transferred the upper aqueous phase to above tubes with agarose beads saturated with antibodies, respectively; Kept the tubes rotating overnight at 4° C., centrifuged at 2,200×g for 5 min, and washed the beads with lysis buffer twice; Extracted total RNAs from beads using Trizol Reagent (Life Technologies); Amplification of piR-L-163 or its mutants was performed according to the steps described in the “RT-PCR” section.

MDM2 = experiment: Western blot of MDM2 cleavage and phosphorylation in SCC cells; format: cell-based, human; settings: SCC cells transfected, vs Scr RNA
Description: Primary antibodies used were: anti-Moesin (1:1,000, Clone Q480, Catalog No. 3150, Cell Signaling), anti-p-ERM (Clone 41A3, Catalog No. 3149, Cell Signaling), anti-Moesin (Clone 38/Moesin, Catalog No. 610401, BD Transduction Laboratories), anti-p-Moesin (Thr558, Catalog No. 12895, Sanra Cruz), anti-β-actin (1:5,000, Catalog No. A228, Sigma-Aldrich), anti-EBP50 (1:100, Clone 6/EBP50, Catalog No. 61160, BD Transduction Laboratories), anti-F-actin (1:100, Clone NH3, Catalog No. MA1-80729, Thermor Fisher), anti-p-Wee 1 (Se53, 1:1000, Catalog No. sc-130223, Sanra Cruz), anti-Wee 1 (C-20, 1:1000, Catalog No. sc-325, Sanra Cruz), anti-p-Cdc2 (Tyr15, 1:1000, Catalog No. 9111, Cell Signaling), anti-p-Cdk (Thr14/Tyr15-R, 1:1000, Catalog No. sc-28435-R, Sanra Cruz), anti-Cdc2 p34 (H-297, 1:1000, Catalog No. sc-747, Sanra Cruz), anti-p-Cdc25C (Ser198, 1:1000, Catalog No. 9529, Cell Signaling), anti-CDK2 (78B2, 1:1000, Catalog No. 2546, Cell Signaling), anti-p-Histone H2AX (Ser139, 20E3, :1000, Catalog No. 9718, Cell Signaling), and anti-GFP (N-terminal, 1:4000, Catalog No. G1544, Sigma). Secondary antibodies used were: Goat anti-Mouse (1:2,500, Catalog No. 31160, Pierce), and Goat anti-Rabbit (1:2,500, Catalog No. 31460, Pierce). Cells were lysed in RIPA buffer (Sigma) on ice after washed in PBS twice, centrifuge at […] for 10 min at 4° C. Protein in supernatant was qualified using BCA™ protein assay kit (Thermo Scitific) and denatured in SDS loading buffer in boiling water, run 10% SDS-PAGE gel and transferred to nitrocellulose membrane (Thermo Scitific). […]
Next, we wanted to explore potential mechanism of piR-L-138-mediated apoptosis inhibition in CDDP treated lung SCC cells. We first analyzed cleaved PARP, a protein marker indicative of apoptosis, and found it was increased in the SCC cells pre-treated with Ant-138 compared with Scr pre-treated cells (FIG. 15d). As both of the SCC cell lines harbor p53 mutations, we analyzed mouse double minute 2 homolog (MDM2) which has been implicated in apoptosis including p53-independent pathway (Bohlman S, Manfredi J J. p53-independent effects of Mdm2. Subcell Biochem. 85,235-46 (2014); Bouska A, Eischen C M. Mdm2 affects genome stability independent of p53. Cancer Res. 69, 1697-701 (2009); Zhang, Z., Li, M., Wang, H., Agrawal, S., and Zhang, R. Antisense therapy targeting MDM2 oncogene in prostate cancer: Effects on proliferation, apoptosis, multiple gene expression, and chemotherapy. Proc. Natl. Acad. Sci. 100, 11636-11641 (2003); Zhang Z, Wang H, Li M, Agrawal S, Chen X, Zhang R. MDM2 Is a Negative Regulator of p21WAF1/CIP1, Independent of p53. […]

Substance	oligonucleotide detected by RT-PCR in anti-p-ERM IP products (binding to p-ERM) (p-ERM)	other results
M1: mutant form of piR-L-163, RNA oligonucleotide, SEQ ID NO:519 (AUAUCAUGAUGACACGACGACACUCUGACC; (30)..(30) 2′-O-methylation)	no RT-PCR band could be detected	invasion capability (H1792 cells): no impact
M2: mutant form of piR-L-163, RNA oligonucleotide, SEQ ID NO:520 (AUAUCAUGAUGUUACGACGAUUCUCUGACC; sugars from the 5' end r29 m1, backbone not given here; further chemistry not fully specified)	no RT-PCR band could be detected	
M3: mutant form of piR-L-163, RNA oligonucleotide, SEQ ID NO:521 (AUAUCAUGAUGUUACGCUGAUUCUCUGACC; sugars from the 5' end r29 m1, backbone not given here; further chemistry not fully specified)	RT-PCR bands with expected sizes were detected; also recorded: substantially weaker	
M4: mutant form of piR-L-163, RNA oligonucleotide, SEQ ID NO:522 (AUAUCAUGAUGUUACUCUGAUUCUCUGACC; sugars from the 5' end r29 m1, backbone not given here; further chemistry not fully specified)	RT-PCR bands with expected sizes were detected	
M5: mutant form of piR-L-163, RNA oligonucleotide, SEQ ID NO:523 (AUUUCAUGAUGUUACUUUGAUUCUCUGACC; sugars from the 5' end r29 m1, backbone not given here; further chemistry not fully specified)	RT-PCR bands with expected sizes were detected	
Scr: scrambled DNA or RNA oligonucleotides used as control (SEQ ID NO:506 DNA, SEQ ID NO:524 RNA) (DNA GATACCAGGGACATACGCTTGATCCTAGC; chain GAUACCAAGGACAUACGCUUAUGCAUGCUA; DNA: DNA, backbone and methylation of C not given here; chain: chemistry not given here) [reference compound]	no RT-PCR band could be detected	
piR-L-138: sprRNA, SEQ ID NO:268; piRNA-L down-regulated in NSCLC cells, up-regulated upon cisplatin (ACUUUAGCUCUAGAAUUACUCUGAGACCU; expressed or natural sequence; listed as Homo sapiens)		MDM2 cleavage (MDM2): enhanced MDM2 cleavage; Serine-166 phosphorylation in cleaved MDM2 (MDM2): reduced Serine-166 phosphorylation in cleaved MDM2
